Data on five compounds can be found in patent US9409905B2, “Antibacterial compounds and methods for use” (PTC THERAPEUTICS, INC., priority 2011, dated 2016).

Each structure is given as a SMILES string. Values after ≈ are worked out from the molar mass of the structure shown.

One assay has as its system E. coli ELZ4251. Kind of assay: Antibacterial activity, MIC, multi-drug resistant clinical isolate (Table 3). Type of assay: cell-based. Conditions: Escherichia coli. The method in brief: (§1)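 MIC (μg/mL) read as lowest concentration with no macroscopically visible growth, determined by microbroth dilution.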
For a further assay, the system named is E. coli ELZ4000. The description is as above. Type of assay: cell-based. Particulars: Escherichia coli, ELZ4000, read-out: MIC ELZ4000. The method in brief:
as §1

The test system of assay [1] is Moraxella catarrhalis (M. catarrhalis) 25238. Kind of assay: Antibacterial activity, MIC (Table 7). The format is cell-based. A digest of the protocol: (§2)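 Values are minimum inhibitory concentrations in μg/mL, determined by microbroth dilution as the lowest concentration with no macroscopically visible growth.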
In assay [2] the test system is Staphylococcus aureus (S. aureus) 29213. Kind of assay: Antibacterial activity, microbroth dilution MIC (Table 1). Particulars: microbroth dilution, Gram-positive S. aureus 29213, read-out: MIC, 29213. Type of assay: cell-based. The method in brief:
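Lowest concentration stopping macroscopically visible growth under test conditions, by broth microdilution, defines the MIC (μg/mL).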
On the technique in general: Broth dilution looks for growth in wells or tubes with falling amounts of substance.

Assay [3] relates to Escherichia coli (E. coli) BAS849. The assay is described as above. The format is cell-based. Conditions: microbroth dilution, super sensitive Gram-negative E. coli BAS849, read-out: MIC, BAS849. A digest of the protocol: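 Read-out: visual absence of growth. The lowest concentration meeting this gives the MIC, expressed in μg/mL, with microbroth dilution as the method.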
The next assay deals with E. coli LZ3111. As to the kind of experiment: Antibacterial activity, MIC, quinolone resistant strain (Table 2). The format is cell-based. Conditions: Escherichia coli, LZ3111, read-out: MIC LZ3111. The method in brief: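 Broth microdilution. Read-out: MIC in μg/mL, taken as lowest concentration with no macroscopically visible growth.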
For assay [4], the system named is Neisseria meningitidis (N. meningitidis) 13090. As to the kind of experiment: Antibacterial activity, MIC (Table 8). The format is cell-based. A digest of the protocol: as §2
Assay [5] concerns Pseudomonas aeruginosa (P. aeruginosa) 27853. Kind of assay: Antibacterial activity, MIC (Table 5). Type of assay: cell-based. Conditions: P. aeruginosa 27853, read-out: MIC, 27853. The method in brief: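 Microbroth dilution; MIC (μg/mL) = lowest concentration with no macroscopically visible growth.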
Assay [6] concerns Acinetobacter baumannii (A. baumannii) BAA747. Kind of assay: Antibacterial activity, MIC (Table 4). Particulars: A. baumannii BAA747, read-out: MIC, BAA747. The format is cell-based. The method in brief: (§3)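 Broth microdilution; MIC (μg/mL) = lowest concentration with no macroscopically visible growth. Resistant strains: multi-drug resistant clinical isolates.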
Assay [7] has as its system Klebsiella pneumoniae (K. pneumoniae) 35657. Kind of assay: Antibacterial activity, MIC (Table 4). The format is cell-based. Particulars: K. pneumoniae 35657, read-out: MIC, 35657. The method in brief:
as §3

In assay [8] the test system is Haemophilus influenzae (H. influenzae) 49247. As to the kind of experiment: Antibacterial activity, MIC (Table 6). Type of assay: cell-based. A digest of the protocol:
as §2

Another assay has as its system A. baumannii MXX2240. As to the kind of experiment: Antibacterial activity, MIC, resistant strain (Table 4). Type of assay: cell-based. Particulars: Acinetobacter baumannii, MXX2240; resistant A. baumannii MMX2240, multi-drug resistant clinical isolate; read-out: MIC, MMX2240. The method in brief:
as §3

The test system of a further assay is K. pneumoniae MXX1232. The description is as above. Conditions: Klebsiella pneumoniae, MXX1232; resistant K. pneumoniae MMX1232, multi-drug resistant clinical isolate; read-out: MIC, MMX1232. Type of assay: cell-based. The method in brief:
as §3

For a further assay, the system named is E. coli 25922. As to the kind of experiment: Antibacterial activity, microbroth dilution MIC (Table 1). The format is cell-based, Escherichia coli. Conditions: Escherichia coli; microbroth dilution; control Gram-negative E. coli 25922 strain; read-out: MIC, 25922. A digest of the protocol: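 Each strain is exposed to test compound in a microbroth dilution series; visible growth is scored macroscopically, and the lowest growth-free concentration is recorded as MIC in μg/mL.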

On to `CCc1c(-c2ccc3c(c2)cc2n3CCNC2)[nH]c(=O)c(C(=O)O)c1O` [Cpd 305, 5-ethyl-4-hydroxy-2-oxo-6-(1,2,3,4-tetrahydropyrazino[1,2-a]indol-8-yl)-1,2-dihydropyridine-3-carboxylic acid], for which the MIC was 3.5 to 12.5 mg/L (≈ 9.9 to 35.4 µM) against E. coli ELZ4251; 12.5 to 150 mg/L (≈ 35.4 to 424 µM) in the assay with E. coli ELZ4000; below 1 mg/L in [1]; 3.5 to 12.5 mg/L (≈ 9.9 to 35.4 µM) in [2]; below 1 mg/L in assay [3]; 3.5 to 12.5 mg/L (≈ 9.9 to 35.4 µM) in the assay on E. coli LZ3111. The MIC was below 1 mg/L in assay [4]; 3.5 to 12.5 mg/L (≈ 9.9 to 35.4 µM) in assay [5]; 1 to 3.5 mg/L (≈ 2.83 to 9.9 µM) in assay [6]; below 1 mg/L in [7]; below 1 mg/L in assay [8]; 12.5 to 150 mg/L (≈ 35.4 to 424 µM) with A. baumannii MXX2240. Moreover, the MIC in the assay on K. pneumoniae MXX1232 is 12.5 to 150 mg/L (≈ 35.4 to 424 µM); in the assay with E. coli 25922, below 1 mg/L.

Consider `Cc1c(-c2ccc3c(c2)cc(CN(C)C)n3C)[nH]c(=O)c(C(=O)O)c1O` [Cpd 314, 6-(2-((dimethylamino)methyl)-1-methyl-1H-indol-5-yl)-4-hydroxy-5-methyl-2-oxo-1,2-dihydropyridine-3-carboxylic acid], for which the MIC is 1 to 3.5 mg/L (≈ 2.81 to 9.85 µM) in the assay on E. coli ELZ4251; 3.5 to 12.5 mg/L (≈ 9.85 to 35.2 µM) in the assay on E. coli ELZ4000; 3.5 to 12.5 mg/L (≈ 9.85 to 35.2 µM) in assay [1]; 12.5 to 150 mg/L (≈ 35.2 to 422 µM) in assay [2]; below 1 mg/L in assay [3]; 1 to 3.5 mg/L (≈ 2.81 to 9.85 µM) in the assay with E. coli LZ3111. The MIC in [4] is below 1 mg/L; in assay [5], 12.5 to 150 mg/L (≈ 35.2 to 422 µM); in assay [6], 3.5 to 12.5 mg/L (≈ 9.85 to 35.2 µM); in assay [7], 3.5 to 12.5 mg/L (≈ 9.85 to 35.2 µM); in [8] it was 1 to 3.5 mg/L (≈ 2.81 to 9.85 µM); with A. baumannii MXX2240 it was 1 to 3.5 mg/L (≈ 2.81 to 9.85 µM). Further, the MIC in the assay with K. pneumoniae MXX1232 was 12.5 to 150 mg/L (≈ 35.2 to 422 µM); with E. coli 25922, 3.5 to 12.5 mg/L (≈ 9.85 to 35.2 µM).

On to `Cc1c(-c2ccc3c(c2)cc(CNCC2CC2)n3C)[nH]c(=O)c(C(=O)O)c1O` [Cpd 315, 6-(2-((cyclopropylmethylamino)methyl)-1-methyl-1H-indol-5-yl)-4-hydroxy-5-methyl-2-oxo-1,2-dihydropyridine-3-carboxylic acid], for which the MIC was below 1 mg/L against E. coli ELZ4251; 1 to 3.5 mg/L (≈ 2.62 to 9.18 µM) with E. coli ELZ4000; 3.5 to 12.5 mg/L (≈ 9.18 to 32.8 µM) in [1]; 12.5 to 150 mg/L (≈ 32.8 to 393 µM) in assay [2]; below 1 mg/L in assay [3]; below 1 mg/L in the assay on E. coli LZ3111. Also, the MIC in assay [4] is below 1 mg/L; in [5], 12.5 to 150 mg/L (≈ 32.8 to 393 µM); in assay [6], 1 to 3.5 mg/L (≈ 2.62 to 9.18 µM); in [7], 1 to 3.5 mg/L (≈ 2.62 to 9.18 µM); in [8], 1 to 3.5 mg/L (≈ 2.62 to 9.18 µM); in the assay with A. baumannii MXX2240, 1 to 3.5 mg/L (≈ 2.62 to 9.18 µM). The MIC is 12.5 to 150 mg/L (≈ 32.8 to 393 µM) in the assay with K. pneumoniae MXX1232 and 1 to 3.5 mg/L (≈ 2.62 to 9.18 µM) in the assay with E. coli 25922.

For the compound `Cc1c(-c2ccc3c(c2)cc(CN2CCC2)n3C)[nH]c(=O)c(C(=O)O)c1O` [Cpd 316, 6-(2-(azetidin-1-ylmethyl)-1-methyl-1H-indol-5-yl)-4-hydroxy-5-methyl-2-oxo-1,2-dihydropyridine-3-carboxylic acid], the MIC in the assay with E. coli ELZ4251 is 3.5 to 12.5 mg/L (≈ 9.53 to 34 µM); with E. coli ELZ4000, 3.5 to 12.5 mg/L (≈ 9.53 to 34 µM); in assay [1], 3.5 to 12.5 mg/L (≈ 9.53 to 34 µM); in [2] it was 12.5 to 150 mg/L (≈ 34 to 408 µM); in assay [3], below 1 mg/L; in the assay on E. coli LZ3111, below 1 mg/L. The MIC lay in the range of 12.5 to 150 mg/L (≈ 34 to 408 µM) in assay [4]; 12.5 to 150 mg/L (≈ 34 to 408 µM) in assay [5]; 3.5 to 12.5 mg/L (≈ 9.53 to 34 µM) in assay [6]; 3.5 to 12.5 mg/L (≈ 9.53 to 34 µM) in [7]; 1 to 3.5 mg/L (≈ 2.72 to 9.53 µM) in assay [8]; 1 to 3.5 mg/L (≈ 2.72 to 9.53 µM) in the assay on A. baumannii MXX2240. The MIC in the assay with K. pneumoniae MXX1232 lay in the range of 12.5 to 150 mg/L (≈ 34 to 408 µM); in the assay on E. coli 25922, 1 to 3.5 mg/L (≈ 2.72 to 9.53 µM).

Regarding `CNCc1cc2cc(-c3[nH]c(=O)c(C(=O)O)c(O)c3C)ccc2n1C` [Cpd 317, 4-hydroxy-5-methyl-6-(1-methyl-2-((methylamino)methyl)-1H-indol-5-yl)-2-oxo-1,2-dihydropyridine-3-carboxylic acid], the MIC against E. coli ELZ4251 is below 1 mg/L; in the assay with E. coli ELZ4000, 1 to 3.5 mg/L (≈ 2.93 to 10.3 µM); in [1], 3.5 to 12.5 mg/L (≈ 10.3 to 36.6 µM); in assay [2] it was 12.5 to 150 mg/L (≈ 36.6 to 439 µM); in [3], below 1 mg/L; in the assay with E. coli LZ3111, below 1 mg/L. The MIC was below 1 mg/L in assay [4]; 12.5 to 150 mg/L (≈ 36.6 to 439 µM) in assay [5]; 3.5 to 12.5 mg/L (≈ 10.3 to 36.6 µM) in [6]; 1 to 3.5 mg/L (≈ 2.93 to 10.3 µM) in assay [7]; 1 to 3.5 mg/L (≈ 2.93 to 10.3 µM) in assay [8]; 1 to 3.5 mg/L (≈ 2.93 to 10.3 µM) in the assay with A. baumannii MXX2240. The MIC with K. pneumoniae MXX1232 lay within 3.5 to 12.5 mg/L (≈ 10.3 to 36.6 µM); in the assay with E. coli 25922 it was 1 to 3.5 mg/L (≈ 2.93 to 10.3 µM).
